Data taken from ChEMBL document CHEMBL4346705, “(±)-trans-Dihydronarciclasine and (±)-trans-dihydrolycoricidine analogues modified in their ring A: Evaluation of their anticancer activity and a SAR study” (2019).

Experiments:
Type in all cases: functional
OVCAR-4 = test: Antiproliferative activity against human OVCAR4 cells assessed as cell viability at 10^-5 M incubated for 48 hrs by sulforhodamine B assay relative to control; conditions: OVCAR-4, 48 h, read-out: Activity
MDA-MB-435 = test: Antiproliferative activity against human MDA-MB-435 cells assessed as cell viability at 10^-5 M incubated for 48 hrs by sulforhodamine B assay relative to control; conditions: MDA-MB-435, 48 h, read-out: Activity
OVCAR-3 = test: Antiproliferative activity against human OVCAR3 cells assessed as cell viability at 10^-5 M incubated for 48 hrs by sulforhodamine B assay relative to control; conditions: OVCAR-3, 48 h, read-out: Activity
T47D = test: Antiproliferative activity against human T47D cells assessed as cell viability at 10^-5 M incubated for 48 hrs by sulforhodamine B assay relative to control; conditions: read-out: Activity
DU-145 = test: Antiproliferative activity against human DU145 cells assessed as cell viability at 10^-5 M incubated for 48 hrs by sulforhodamine B assay relative to control; conditions: DU-145, 48 h, read-out: Activity
NCI-H322M = test: Antiproliferative activity against human NCI-H322M cells assessed as cell viability at 10^-5 M incubated for 48 hrs by sulforhodamine B assay relative to control; conditions: read-out: Activity
A549 = test: Antiproliferative activity against human A549 cells assessed as cell viability at 10^-5 M incubated for 48 hrs by sulforhodamine B assay relative to control; conditions: A549, 48 h, read-out: Activity
SNB-19 = test: Antiproliferative activity against human SNB19 cells assessed as cell viability at 10^-5 M incubated for 48 hrs by sulforhodamine B assay relative to control; conditions: SNB-19, 48 h, read-out: Activity
SK-OV-3 = test: Antiproliferative activity against human SKOV3 cells assessed as cell viability at 10^-5 M incubated for 48 hrs by sulforhodamine B assay relative to control; conditions: SK-OV-3, 48 h, read-out: Activity
HL-60(TB) = test: Antiproliferative activity against human HL-60(TB) cells assessed as cell viability at 10^-5 M incubated for 48 hrs by sulforhodamine B assay relative to control; conditions: HL-60, 48 h, read-out: Activity
NCI-H522 = test: Antiproliferative activity against human NCI-H522 cells assessed as cell viability at 10^-5 M incubated for 48 hrs by sulforhodamine B assay relative to control; conditions: NCI-H522, 48 h, read-out: Activity
HT-29 = test: Antiproliferative activity against human HT-29 cells assessed as cell viability at 10^-5 M incubated for 48 hrs by sulforhodamine B assay relative to control; conditions: HT-29, 48 h, read-out: Activity
SF-539 = test: Antiproliferative activity against human SF539 cells assessed as cell viability at 10^-5 M incubated for 48 hrs by sulforhodamine B assay relative to control; conditions: SF-539, 48 h, read-out: Activity
MCF7 = test: Antiproliferative activity against human MCF7 cells assessed as cell viability at 10^-5 M incubated for 48 hrs by sulforhodamine B assay relative to control; conditions: MCF7, 48 h, read-out: Activity
KM12 = test: Antiproliferative activity against human KM12 cells assessed as cell viability at 10^-5 M incubated for 48 hrs by sulforhodamine B assay relative to control; conditions: KM12, 48 h, read-out: Activity
MOLT-4 = test: Antiproliferative activity against human MOLT4 cells assessed as cell viability at 10^-5 M incubated for 48 hrs by sulforhodamine B assay relative to control; conditions: MOLT-4, 48 h, read-out: Activity
U-251 = test: Antiproliferative activity against human U251 cells assessed as cell viability at 10^-5 M incubated for 48 hrs by sulforhodamine B assay relative to control; conditions: U-251, 48 h, read-out: Activity
PC-3 = test: Antiproliferative activity against human PC3 cells assessed as cell viability at 10^-5 M incubated for 48 hrs by sulforhodamine B assay relative to control; conditions: PC-3, 48 h, read-out: Activity
HOP-92 = test: Antiproliferative activity against human HOP92 cells assessed as cell viability at 10^-5 M incubated for 48 hrs by sulforhodamine B assay relative to control; conditions: HOP-92, 48 h, read-out: Activity
UACC-62 = test: Antiproliferative activity against human UACC62 cells assessed as cell viability at 10^-5 M incubated for 48 hrs by sulforhodamine B assay relative to control; conditions: UACC-62, 48 h, read-out: Activity
TK-10 = test: Antiproliferative activity against human TK10 cells assessed as cell viability at 10^-5 M incubated for 48 hrs by sulforhodamine B assay relative to control; conditions: TK-10, 48 h, read-out: Activity
SN12C = test: Antiproliferative activity against human SN12C cells assessed as cell viability at 10^-5 M incubated for 48 hrs by sulforhodamine B assay relative to control; conditions: read-out: Activity
ACHN = test: Antiproliferative activity against human ACHN cells assessed as cell viability at 10^-5 M incubated for 48 hrs by sulforhodamine B assay relative to control; conditions: read-out: Activity
SW-620 = test: Antiproliferative activity against human SW620 cells assessed as cell viability at 10^-5 M incubated for 48 hrs by sulforhodamine B assay relative to control; conditions: SW-620, 48 h, read-out: Activity
HCT-15 = test: Antiproliferative activity against human HCT15 cells assessed as cell viability at 10^-5 M incubated for 48 hrs by sulforhodamine B assay relative to control; conditions: HCT-15, 48 h, read-out: Activity
UO-31 = test: Antiproliferative activity against human UO31 cells assessed as cell viability at 10^-5 M incubated for 48 hrs by sulforhodamine B assay relative to control; conditions: UO-31, 48 h, read-out: Activity
SF-268 = test: Antiproliferative activity against human SF268 cells assessed as cell viability at 10^-5 M incubated for 48 hrs by sulforhodamine B assay relative to control; conditions: SF-268, 48 h, read-out: Activity
M14 = test: Antiproliferative activity against human M14 cells assessed as cell viability at 10^-5 M incubated for 48 hrs by sulforhodamine B assay relative to control; conditions: M14, 48 h, read-out: Activity
NCI-H23 = test: Antiproliferative activity against human NCI-H23 cells assessed as cell viability at 10^-5 M incubated for 48 hrs by sulforhodamine B assay relative to control; conditions: NCI-H23, 48 h, read-out: Activity
OVCAR-5 = test: Antiproliferative activity against human OVCAR5 cells assessed as cell viability at 10^-5 M incubated for 48 hrs by sulforhodamine B assay relative to control; conditions: OVCAR-5, 48 h, read-out: Activity
SNB-75 = test: Antiproliferative activity against human SNB75 cells assessed as cell viability at 10^-5 M incubated for 48 hrs by sulforhodamine B assay relative to control; conditions: SNB-75, 48 h, read-out: Activity
LOX IMVI = test: Antiproliferative activity against human LOXIMVI cells assessed as cell viability at 10^-5 M incubated for 48 hrs by sulforhodamine B assay relative to control; conditions: read-out: Activity

Structure (SMILES)	viability at 10 µM (OVCAR-4)	viability at 10 µM (MDA-MB-435)	viability at 10 µM (OVCAR-3)	viability at 10 µM (T47D)	viability at 10 µM (DU-145)	viability at 10 µM (NCI-H322M)	viability at 10 µM (A549)	viability at 10 µM (SNB-19)	viability at 10 µM (SK-OV-3)	viability at 10 µM (HL-60(TB))	viability at 10 µM (NCI-H522)	viability at 10 µM (HT-29)	viability at 10 µM (SF-539)	viability at 10 µM (MCF7)	viability at 10 µM (KM12)	viability at 10 µM (MOLT-4)	viability at 10 µM (U-251)	viability at 10 µM (PC-3)	viability at 10 µM (HOP-92)	viability at 10 µM (UACC-62)	other results
COc1c2c(cc3c1C(=O)NC1C3CC(O)C(O)C1O)OCCO2 (racemic)	105%	108%	104%	84.9%	107%	93.5%	96.5%	102%	98.6%	95.4%	93.5%	106%	106%	93.9%	99.1%	99.6%	100%	97.7%	91.6%	96.7%	viability at 10 µM (TK-10): 95.7%; viability at 10 µM (SN12C): 103%; viability at 10 µM (ACHN): 103%; viability at 10 µM (SW-620): 104%; viability at 10 µM (HCT-15): 102%; viability at 10 µM (UO-31): 86.4%; viability at 10 µM (SF-268): 97.9%; viability at 10 µM (M14): 105%; viability at 10 µM (NCI-H23): 104%; viability at 10 µM (OVCAR-5): 105%; viability at 10 µM (SNB-75): 99.3%; viability at 10 µM (LOX IMVI): 101%
COc1cc2c(c3c1OCCO3)C(=O)NC1C2CC(O)C(O)C1O (racemic)	108%	110%	101%	87.9%	103%	97.3%	93.7%	100%	104%	96.7%	93%	102%	105%	97.3%	95%	105%	100%	95.3%	77.7%	99.3%	viability at 10 µM (TK-10): 98%; viability at 10 µM (SN12C): 99.8%; viability at 10 µM (ACHN): 108%; viability at 10 µM (SW-620): 107%; viability at 10 µM (HCT-15): 102%; viability at 10 µM (UO-31): 89.8%; viability at 10 µM (SF-268): 98.3%; viability at 10 µM (M14): 104%; viability at 10 µM (NCI-H23): 102%; viability at 10 µM (OVCAR-5): 103%; viability at 10 µM (SNB-75): 100%; viability at 10 µM (LOX IMVI): 101%
